Laboratory results from article PMC11012124, “Synthesis of Novel Triazine-Based Chalcones and 8,9-dihydro-7H-pyrimido[4,5-b][1,4]diazepines as Potential Leads in the Search of Anticancer, Antibacterial and Antifungal Agents” (International Journal of Molecular Sciences, 2024).

What was measured:
[1] = system: CCRF-CEM; experiment: cells; conditions: Homo sapiens, 48 h
[2] = system: K-562; experiment: cells; conditions: Homo sapiens, K562, 48 h
[3] = system: NCI-H322M; experiment: cells; conditions: Homo sapiens, 48 h
[4] = system: MDA-MB-435; experiment: cells; conditions: Homo sapiens, MDA-MB-435, 48 h
[5] = system: UACC-62; experiment: cells; conditions: Homo sapiens, UACC-62, 48 h
[6] = system: IGROV1; experiment: cells; conditions: Homo sapiens, IGROV-1, 48 h
[7] = system: HS 578T; experiment: cells; conditions: Homo sapiens, 48 h
[8] = system: OVCAR-8; experiment: cells; conditions: Homo sapiens, OVCAR-8, 48 h
[9] = system: EKVX; experiment: cells; conditions: Homo sapiens, 48 h
[10] = system: SNB-19; experiment: cells; conditions: Homo sapiens, SNB-19, 48 h
[11] = system: HCC-2998; experiment: cells; conditions: Homo sapiens, HCC 2998, 48 h
[12] = system: PC-3; experiment: cells; conditions: Homo sapiens, PC-3, 48 h
[13] = system: HOP-62; experiment: cells; conditions: Homo sapiens, HOP-62, 48 h
[14] = system: A. niger (ATCC 9029); experiment: Antifungal broth microdilution (CLSI); assay type: cell-based; conditions: ATCC9029; Ani: Aspergillus niger
Procedure: (§1) Several of the obtained triazine derivatives were evaluated against sensitive fungal species comprising of two yeasts (Candida albicans (ATCC 10231), Cryptococcus neoformans (ATCC 32264)), three dermatophytes (Microsporum gypseum (CCC 115), Trichophyton rubrum (CCC 134-2000), Trichophyton mentagrophytes (CCC 202-2000)), and three Aspergillus fungi ((A. [NT] 26934), A. niger (ATCC 9029), and A. flavus (ATCC 9170)). […] Broth microdilution techniques were performed in 96-well microplates according to the Reference Method for Broth Dilution Antifungal Susceptibility Testing of Yeasts, document M27-A3 [86] and of Filamentous Fungi […]-A8 [87]. […] An inoculum suspension (100 μL) was added to each well (final well volume = 200 μL). One growth control well (containing medium, inoculum, and the same amount of DMSO as used for each compound) and one sterility control well (sample, medium, and sterile water instead of inoculum) were included for each fungus tested. Microtiter plates were incubated in a dark, humid chamber at 30 °C for the time necessary for each fungus. Amphotericin B, Terbinafine, Fluconazole and Itraconazole were used as a positive control. The tests were performed in triplicate.

[15] = system: Microsporum gypseum (CCC 115); experiment: Antifungal broth microdilution (CLSI); assay type: cell-based; conditions: Nannizzia gypsea; Mg: Microsporum gypseum
Procedure: as §1

[16] = system: RXF 393; experiment: cells; conditions: Homo sapiens, RXF 393, 48 h
[17] = system: BT-549; experiment: cells; conditions: Homo sapiens, BT-549, 48 h
[18] = system: SF-268; experiment: cells; conditions: Homo sapiens, SF-268, 48 h
[19] = system: SK-MEL-28; experiment: cells; conditions: Homo sapiens, SK-MEL-28, 48 h
[20] = system: ACHN; experiment: cells; conditions: Homo sapiens, 48 h
[21] = system: OVCAR-3; experiment: cells; conditions: Homo sapiens, OVCAR-3, 48 h
[22] = system: MALME-3M; experiment: cells; conditions: Homo sapiens, 48 h
[23] = system: SW-620; experiment: cells; conditions: Homo sapiens, SW-620, 48 h
[24] = system: CAKI-1; experiment: cells; conditions: Homo sapiens, CAKI-1, 48 h
[25] = system: SR; experiment: cells; conditions: Homo sapiens, 48 h

Structure (SMILES): CN(C)c1nc(NCCNS(=O)(=O)c2ccc(C(=O)/C=C/c3ccc(Cl)cc3)cc2)nc(N2CCOCC2)n1 [23e]
- GI50 [1]: 6.86 µM
- CC50 ([1]; read-out: LC50): > 100 µM
- GI50 ([2]; K-562, 48 h): 3.71 µM
- CC50 ([2]; read-out: LC50): > 100 µM
- GI50 [3]: 14.4 µM
- CC50 ([3]; read-out: LC50): 52.4 µM
- GI50 [4]: 12.8 µM
- CC50 ([4]; read-out: LC50): 55.3 µM
- GI50 [5]: 11.4 µM
- CC50 ([5]; read-out: LC50): 49.1 µM
- GI50 [6]: 3.08 µM
- CC50 ([6]; read-out: LC50): 36.8 µM
- GI50 [7]: 15.8 µM
- CC50 ([7]; read-out: LC50): > 100 µM
- GI50 [8]: 14.8 µM
- CC50 ([8]; read-out: LC50): 54.5 µM
- GI50 [9]: 14.8 µM
- CC50 ([9]; read-out: LC50): 55.7 µM
- GI50 [10]: 14.2 µM
- CC50 ([10]; read-out: LC50): 52.1 µM
- GI50 [11]: 16.7 µM
- CC50 ([11]; read-out: LC50): 56.7 µM
- GI50 [12]: 13 µM
- CC50 ([12]; read-out: LC50): 67 µM
- GI50 [13]: 17.5 µM
- CC50 ([13]; read-out: LC50): 65.8 µM
- MIC [14]: > 250 µg/mL
- MIC [15]: > 250 µg/mL
- GI50 [16]: 12.8 µM
- CC50 ([16]; read-out: LC50): 57.1 µM
- GI50 [17]: 15.3 µM
- CC50 ([17]; read-out: LC50): 56 µM
- GI50 [18]: 17.7 µM
- CC50 ([18]; read-out: LC50): > 100 µM
- GI50 [19]: 15.5 µM
- CC50 ([19]; read-out: LC50): 53.9 µM
- GI50 [20]: 13.5 µM
- CC50 ([20]; read-out: LC50): 51.3 µM
- GI50 [21]: 17.9 µM
- CC50 ([21]; read-out: LC50): 70.5 µM
- GI50 [22]: 15.1 µM
- CC50 ([22]; read-out: LC50): 54.2 µM
- GI50 [23]: 8.46 µM
- CC50 ([23]; read-out: LC50): 50.2 µM
- GI50 [24]: 11.2 µM
- CC50 ([24]; read-out: LC50): 54.7 µM
- GI50 [25]: 2.52 µM
- CC50 ([25]; read-out: LC50): > 100 µM
